Assay results taken from US10604554B2, “Double-acylated GLP-1 derivatives” (Novo Nordisk A/S, priority 2012, dated 2020).

Target: T1, human GLP-1 receptor (Homo sapiens, UniProt P43220)
T1 construct: expressed in transfected cells; host or cells: BHK cells, clone FCW467-12A/KZ10-1 (parent line BHKTS13), further transfected with CRE luciferase
Assay: In vitro potency (CRE luciferase; whole cells)
Assay type: cell-based
Details: BHK cells
Procedure, shortened: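 Stably transfected BHK cells carrying human GLP-1R and a CRE–firefly luciferase reporter, 5×10^3 cells/well in assay medium, run with 0% or 1% HSA in assay buffer.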

[1] = In vitro potency (CRE luciferase) EC50 (0% HSA), 0% HSA
[2] = In vitro potency (CRE luciferase) EC50 (1% HSA), 1% HSA

T1 sequence (P43220 24-463): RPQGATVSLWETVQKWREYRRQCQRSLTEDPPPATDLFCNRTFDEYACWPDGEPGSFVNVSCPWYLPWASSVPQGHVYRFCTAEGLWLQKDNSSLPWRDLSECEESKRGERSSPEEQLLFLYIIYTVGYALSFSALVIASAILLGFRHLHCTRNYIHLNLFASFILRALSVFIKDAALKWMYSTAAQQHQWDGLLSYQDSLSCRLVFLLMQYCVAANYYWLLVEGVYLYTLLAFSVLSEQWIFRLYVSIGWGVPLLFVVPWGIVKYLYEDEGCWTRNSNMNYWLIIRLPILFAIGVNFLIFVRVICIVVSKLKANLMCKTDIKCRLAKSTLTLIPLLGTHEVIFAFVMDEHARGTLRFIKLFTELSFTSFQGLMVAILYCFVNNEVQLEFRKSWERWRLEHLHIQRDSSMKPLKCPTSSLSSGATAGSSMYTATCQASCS

SMILES | EC50 [1] | EC50 [2]
CC[C@H](C)[C@H](NC(=O)[C@H](Cc1ccccc1)NC(=O)[C@H](CCC(=O)O)NC(=O)[C@H](CCCCNC(=O)[C@@H](N)CCCCNC(=O)[C@@H](N)CCCCNC(=O)CC[C@H](NC(=O)CCCCCCCCCOc1ccc(C(=O)O)cc1)C(=O)O)NC(=O)[C@H](C)NC(=O)[C@H](C)NC(=O)[C@H](CCC(N)=O)NC(=O)CNC(=O)[C@H](CCC(=O)O)NC(=O)[C@H](CC(C)C)NC(=O)[C@H](Cc1ccc(O)cc1)NC(=O)[C@H](CO)NC(=O)[C@H](CO)NC(=O)[C@@H](NC(=O)[C@H](CC(=O)O)NC(=O)[C@H](CO)NC(=O)[C@@H](NC(=O)[C@H](Cc1ccccc1)NC(=O)[C@@H](NC(=O)CNC(=O)[C@H](CCC(=O)O)NC(=O)C(C)(C)NC(=O)[C@@H](N)Cc1c[nH]cn1)[C@@H](C)O)[C@@H](C)O)C(C)C)C(=O)N[C@@H](C)C(=O)N[C@@H](Cc1c[nH]c2ccccc12)C(=O)N[C@@H](CC(C)C)C(=O)N[C@H](C(=O)N[C@@H](CCCNC(=N)N)C(=O)NCC(=O)N[C@@H](CCCNC(=N)N)C(=O)N[C@@H](CCCCNC(=O)[C@@H](N)CCCCNC(=O)[C@@H](N)CCCCNC(=O)CC[C@H](NC(=O)CCCCCCCCCOc1ccc(C(=O)O)cc1)C(=O)O)C(=O)O)C(C)C [Example 1, N^ε26-[(2S)-2-amino-6-[[(2S)-2-amino-6-[[(4S)-4-carboxy-4-[10-(4-carboxyphenoxy)decanoylamino]butanoyl]amino]hexanoyl]amino]hexanoyl], N^ε37-[(2S)-2-amino-6-[[(2S)-2-amino-6-[[(4S)-4-carboxy-4-[10-(4-carboxyphenoxy)decanoylamino]butanoyl]amino]hexanoyl]amino]hexanoyl]-[Aib^8, Arg^34,Lys^37]-GLP-1-(7-37)-peptide] | 0.004 nM | 0.057 nM
CC[C@H](C)[C@H](NC(=O)[C@H](Cc1ccccc1)NC(=O)[C@H](CCC(=O)O)NC(=O)[C@H](CCCCNC(=O)[C@@H](N)CCCCNC(=O)[C@@H](N)CCCCNC(=O)CC[C@H](NC(=O)CCCCCCCCCCCCC(=O)O)C(=O)O)NC(=O)[C@H](C)NC(=O)[C@H](C)NC(=O)[C@H](CCC(N)=O)NC(=O)CNC(=O)[C@H](CCC(=O)O)NC(=O)[C@H](CC(C)C)NC(=O)[C@H](Cc1ccc(O)cc1)NC(=O)[C@H](CO)NC(=O)[C@H](CO)NC(=O)[C@@H](NC(=O)[C@H](CC(=O)O)NC(=O)[C@H](CO)NC(=O)[C@@H](NC(=O)[C@H](Cc1ccccc1)NC(=O)[C@@H](NC(=O)CNC(=O)[C@H](CCC(=O)O)NC(=O)C(C)(C)NC(=O)[C@@H](N)Cc1c[nH]cn1)[C@@H](C)O)[C@@H](C)O)C(C)C)C(=O)N[C@@H](C)C(=O)N[C@@H](Cc1c[nH]c2ccccc12)C(=O)N[C@@H](CC(C)C)C(=O)N[C@H](C(=O)N[C@@H](CCCNC(=N)N)C(=O)NCC(=O)N[C@@H](CCCNC(=N)N)C(=O)N[C@@H](CCCCNC(=O)[C@@H](N)CCCCNC(=O)[C@@H](N)CCCCNC(=O)CC[C@H](NC(=O)CCCCCCCCCCCCC(=O)O)C(=O)O)C(=O)O)C(C)C [Example 2, N^ε26-[(2S)-2-amino-6-[[(2S)-2-amino-6-[[(4S)-4-carboxy-4-(13-carboxytridecanoylamino)butanoyl]amino]hexanoyl]amino]hexanoyl], N^ε37-[(2S)-2-amino-6-[[(2S)-2-amino-6-[[(4S)-4-carboxy-4-(13-carboxytridecanoylamino)butanoyl]amino]hexanoyl]amino]hexanoyl]-[Aib^8,Arg^34,Lys^37]-GLP-1-(7-37)-peptide] | – | 0.059 nM
CC[C@H](C)[C@H](NC(=O)[C@H](Cc1ccccc1)NC(=O)[C@H](CCC(=O)O)NC(=O)[C@H](CCCCNC(=O)[C@@H](N)CCCCNC(=O)COCCOCCNC(=O)COCCOCCNC(=O)CC[C@H](NC(=O)CCCCCCCCCOc1ccc(C(=O)O)cc1)C(=O)O)NC(=O)[C@H](C)NC(=O)[C@H](C)NC(=O)[C@H](CCC(N)=O)NC(=O)CNC(=O)[C@H](CCC(=O)O)NC(=O)[C@H](CC(C)C)NC(=O)[C@H](Cc1ccc(O)cc1)NC(=O)[C@H](CO)NC(=O)[C@H](CO)NC(=O)[C@@H](NC(=O)[C@H](CC(=O)O)NC(=O)[C@H](CO)NC(=O)[C@@H](NC(=O)[C@H](Cc1ccccc1)NC(=O)[C@@H](NC(=O)CNC(=O)[C@H](CCC(=O)O)NC(=O)C(C)(C)NC(=O)[C@@H](N)Cc1c[nH]cn1)[C@@H](C)O)[C@@H](C)O)C(C)C)C(=O)N[C@@H](C)C(=O)N[C@@H](Cc1c[nH]c2ccccc12)C(=O)N[C@@H](CC(C)C)C(=O)N[C@H](C(=O)N[C@@H](CCCNC(=N)N)C(=O)NCC(=O)N[C@@H](CCCNC(=N)N)C(=O)N[C@@H](CCCCNC(=O)[C@@H](N)CCCCNC(=O)COCCOCCNC(=O)COCCOCCNC(=O)CC[C@H](NC(=O)CCCCCCCCCOc1ccc(C(=O)O)cc1)C(=O)O)C(=O)O)C(C)C [Example 5] | 0.0054 nM | 0.033 nM
CC[C@H](C)[C@H](NC(=O)[C@H](Cc1ccccc1)NC(=O)[C@H](CCC(=O)O)NC(=O)[C@H](CCCCNC(=O)[C@@H](N)CCCCNC(=O)[C@@H](N)CCCCNC(=O)CC[C@H](NC(=O)CCCCCCCCCCCOc1ccc(C(=O)O)cc1)C(=O)O)NC(=O)[C@H](C)NC(=O)[C@H](C)NC(=O)[C@H](CCC(N)=O)NC(=O)CNC(=O)[C@H](CCC(=O)O)NC(=O)[C@H](CC(C)C)NC(=O)[C@H](Cc1ccc(O)cc1)NC(=O)[C@H](CO)NC(=O)[C@H](CO)NC(=O)[C@@H](NC(=O)[C@H](CC(=O)O)NC(=O)[C@H](CO)NC(=O)[C@@H](NC(=O)[C@H](Cc1ccccc1)NC(=O)[C@@H](NC(=O)CNC(=O)[C@H](CCC(=O)O)NC(=O)C(C)(C)NC(=O)[C@@H](N)Cc1c[nH]cn1)[C@@H](C)O)[C@@H](C)O)C(C)C)C(=O)N[C@@H](C)C(=O)N[C@@H](Cc1c[nH]c2ccccc12)C(=O)N[C@@H](CC(C)C)C(=O)N[C@H](C(=O)N[C@@H](CCCNC(=N)N)C(=O)NCC(=O)N[C@@H](CCCNC(=N)N)C(=O)N[C@@H](CCCCNC(=O)[C@@H](N)CCCCNC(=O)[C@@H](N)CCCCNC(=O)CC[C@H](NC(=O)CCCCCCCCCCCOc1ccc(C(=O)O)cc1)C(=O)O)C(=O)O)C(C)C [Example 7, N^ε26-[(2S)-2-amino-6-[[(2S)-2-amino-6-[[(4S)-4-carboxy-4-[12-(4-carboxyphenoxy)dodecanoylamino]butanoyl]amino]hexanoyl]amino]hexanoyl], N^ε37-[(2S)-2-amino-6-[[(2S)-2-amino-6-[[(4S)-4-carboxy-4-[12-(4-carboxyphenoxy)dodecanoylamino]butanoyl]amino]hexanoyl]amino]hexanoyl]-[Aib^8,Arg^34,Lys^37]-GLP-1-(7-37)-peptide] | – | 0.096 nM
